According to patent US20090203708A1, “NOVEL SUBSTITUTED-1-H-QUINAZOLINE-2,4-DIONE DERIVATIVES, PREPARATION METHOD THEREOF AND PHARMACEUTICAL COMPOSITION CONTAINING THE SAME” (Korea Research Institute of Chemical Technology, priority 2006, published 2009):

Tests used:
[1] = target: human serotonin 5-HT6 receptor (Homo sapiens, UniProt P50406); experiment: [3H]LSD binding assay for cloned 5-HT6 receptors
[2] = target: 5-HT7 (human recombinant receptor, CHO-K1) (Homo sapiens, UniProt P34969); experiment: Radioligand binding assay, 5-HT7
Sequence of 5-HT7 (human recombinant receptor, CHO-K1) (P34969 whole entry): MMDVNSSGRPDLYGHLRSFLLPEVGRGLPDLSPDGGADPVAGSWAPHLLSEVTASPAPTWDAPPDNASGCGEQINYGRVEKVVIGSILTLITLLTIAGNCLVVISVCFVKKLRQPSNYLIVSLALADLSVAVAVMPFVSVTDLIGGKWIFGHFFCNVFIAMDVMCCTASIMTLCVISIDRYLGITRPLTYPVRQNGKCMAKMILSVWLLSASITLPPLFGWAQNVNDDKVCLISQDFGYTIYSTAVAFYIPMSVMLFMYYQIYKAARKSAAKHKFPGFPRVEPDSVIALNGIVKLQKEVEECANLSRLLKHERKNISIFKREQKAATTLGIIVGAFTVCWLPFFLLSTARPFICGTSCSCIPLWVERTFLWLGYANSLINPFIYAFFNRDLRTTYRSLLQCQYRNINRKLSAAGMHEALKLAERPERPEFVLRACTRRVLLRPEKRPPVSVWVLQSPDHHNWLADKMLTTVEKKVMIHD

D3 (hD3 receptor) = D3 (hD3 receptor) (Homo sapiens, UniProt P35462); experiment: Radioligand binding assay, dopamine D3
Sequence of D3 (hD3 receptor) (P35462 whole entry): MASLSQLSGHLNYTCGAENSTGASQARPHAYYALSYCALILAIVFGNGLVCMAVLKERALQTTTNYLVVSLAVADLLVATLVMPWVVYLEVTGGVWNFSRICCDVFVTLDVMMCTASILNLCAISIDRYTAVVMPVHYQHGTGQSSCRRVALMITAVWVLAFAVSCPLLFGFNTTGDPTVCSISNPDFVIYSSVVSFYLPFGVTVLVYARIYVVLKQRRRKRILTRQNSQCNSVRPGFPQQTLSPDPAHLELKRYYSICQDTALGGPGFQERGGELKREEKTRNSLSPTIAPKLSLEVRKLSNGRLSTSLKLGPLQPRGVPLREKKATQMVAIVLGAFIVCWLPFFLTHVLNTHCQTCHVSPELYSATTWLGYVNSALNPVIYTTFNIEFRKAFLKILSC

D2 (hD2L receptor) = target: T1, D2 (hD2L receptor) (Homo sapiens, UniProt P14416); experiment: Radioligand binding assay, dopamine D2; conditions: [3H] spiperone 1 nM; read-out: Binding affinity IC50 D2
T1 construct: purchased BioSignal Packard Inc., Montreal, Canada
T1 sequence (P14416 whole entry): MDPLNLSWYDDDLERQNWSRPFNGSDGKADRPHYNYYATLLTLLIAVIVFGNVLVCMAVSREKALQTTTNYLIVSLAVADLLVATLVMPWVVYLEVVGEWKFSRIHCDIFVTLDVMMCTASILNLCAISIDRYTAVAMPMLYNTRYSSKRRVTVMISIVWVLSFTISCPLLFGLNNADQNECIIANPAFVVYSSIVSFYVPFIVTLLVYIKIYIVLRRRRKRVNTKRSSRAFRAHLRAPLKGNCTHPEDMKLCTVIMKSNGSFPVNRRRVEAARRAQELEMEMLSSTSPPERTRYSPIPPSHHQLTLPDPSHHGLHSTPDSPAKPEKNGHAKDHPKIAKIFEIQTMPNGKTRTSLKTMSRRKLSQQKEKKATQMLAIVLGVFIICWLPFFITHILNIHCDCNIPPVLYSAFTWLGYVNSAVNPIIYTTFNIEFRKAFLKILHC
Protocol: (§1) Radioligand binding assays for dopamine receptor family (D1, D2 and D3) were performed according to the protocols provided by the manufacturer of receptor membranes (BioSignal Packard Inc., Montreal, Canada). The radioligands used were [^3H] spiperone (for hD2L and hD3 receptors, 1 nM) and [^3H] YM-09151-2 (hD4.2 receptor, 0.06 nM). Briefly, the buffer used in the D1, D2 and D3 receptor binding assay was 50 mM Tris-HCl (pH 7.4), containing 10 mM MgCl2 and 1 mM EDTA, or 50 mM Tris-HCl (pH 7.4), containing 5 mM MgCl2, 5 mM EDTA, 5 mM KCl, 1.5 mM CaCl2 and 120 mM NaCl. For [^3H] YM-09151-2 receptor binding assays, 50 mM Tris-HCl (pH 7.4) containing 5 mM MgCl2, 5 mM EDTA, 5 mM KCl and 1.5 mM CaCl2, was used as a buffer. Nonspecific binding was determined with haloperidol (10 μM) for D2 and D3 and clozapine (10 μM) for D4 receptors.
(§2) Competition binding studies were carried out with 7-8 concentrations of the test compound run in duplicate tubes, and isotherms from three assays were calculated by computerized nonlinear regression analysis (GraphPad Prism Program, San Diego, […]) to yield median inhibitory concentration (IC50) values.

[3] = target: 5-HT2a (human recombinant receptor, CHO-K1) (Homo sapiens, UniProt P28223); experiment: Radioligand binding assay, 5-HT2a
Sequence of 5-HT2a (human recombinant receptor, CHO-K1) (P28223 whole entry): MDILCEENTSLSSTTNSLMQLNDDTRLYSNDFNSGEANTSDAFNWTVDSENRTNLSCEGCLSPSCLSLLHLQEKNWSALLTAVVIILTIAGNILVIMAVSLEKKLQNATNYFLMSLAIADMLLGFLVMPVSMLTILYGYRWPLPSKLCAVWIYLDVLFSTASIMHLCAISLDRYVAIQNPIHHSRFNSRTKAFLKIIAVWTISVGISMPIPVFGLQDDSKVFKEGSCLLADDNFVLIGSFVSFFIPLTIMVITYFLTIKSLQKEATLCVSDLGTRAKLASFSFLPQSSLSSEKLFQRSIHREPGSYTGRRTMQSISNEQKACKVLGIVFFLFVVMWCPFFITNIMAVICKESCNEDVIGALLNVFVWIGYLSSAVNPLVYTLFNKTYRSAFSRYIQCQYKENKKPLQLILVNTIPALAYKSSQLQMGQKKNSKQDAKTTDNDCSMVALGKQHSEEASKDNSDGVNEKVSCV

D4 (hD4.2 receptor) = target: T2, D4 (hD4.2 receptor) (Homo sapiens, UniProt P21917, DEL265-296); experiment: Radioligand binding assay, dopamine D4; conditions: [3H] YM-09151-2 0.06 nM; read-out: Binding affinity IC50 D4
T2 construct: purchased BioSignal Packard Inc., Montreal, Canada
T2 sequence (P21917 with tags, fused parts or gaps DEL265-296): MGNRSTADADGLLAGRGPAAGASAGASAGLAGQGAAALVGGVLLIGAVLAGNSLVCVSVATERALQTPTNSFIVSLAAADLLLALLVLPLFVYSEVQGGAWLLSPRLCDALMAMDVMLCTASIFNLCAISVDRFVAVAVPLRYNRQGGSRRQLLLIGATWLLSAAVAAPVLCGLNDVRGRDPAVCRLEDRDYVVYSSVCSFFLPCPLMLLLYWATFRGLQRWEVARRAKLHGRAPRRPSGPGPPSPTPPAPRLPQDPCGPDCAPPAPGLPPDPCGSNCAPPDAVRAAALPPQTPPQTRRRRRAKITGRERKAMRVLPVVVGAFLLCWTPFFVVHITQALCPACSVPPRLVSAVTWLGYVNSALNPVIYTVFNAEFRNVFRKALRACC
Protocol: as §1, §2

[4] = target: T3, 5-HT1a (human recombinant receptor, CHO-K1) (Homo sapiens, UniProt P08908); experiment: Radioligand binding assay, 5-HT1a
T3 sequence (P08908 1-422): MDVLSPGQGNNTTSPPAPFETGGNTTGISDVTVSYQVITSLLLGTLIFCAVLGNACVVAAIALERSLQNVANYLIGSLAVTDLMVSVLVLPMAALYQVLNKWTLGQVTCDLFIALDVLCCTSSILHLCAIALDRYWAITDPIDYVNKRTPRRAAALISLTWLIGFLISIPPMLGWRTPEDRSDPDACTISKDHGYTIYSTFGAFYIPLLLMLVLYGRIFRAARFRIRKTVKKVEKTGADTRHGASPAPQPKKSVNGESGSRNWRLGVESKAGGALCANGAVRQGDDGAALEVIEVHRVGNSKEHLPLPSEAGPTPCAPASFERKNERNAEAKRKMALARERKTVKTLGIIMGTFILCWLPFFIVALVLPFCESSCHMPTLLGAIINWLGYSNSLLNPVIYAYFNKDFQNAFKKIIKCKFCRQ

[5] = target: T4, 5-HT2c (human recombinant receptor, CHO-K1) (Homo sapiens, UniProt P28335); experiment: Radioligand binding assay, 5-HT2c
T4 sequence (P28335 33-458): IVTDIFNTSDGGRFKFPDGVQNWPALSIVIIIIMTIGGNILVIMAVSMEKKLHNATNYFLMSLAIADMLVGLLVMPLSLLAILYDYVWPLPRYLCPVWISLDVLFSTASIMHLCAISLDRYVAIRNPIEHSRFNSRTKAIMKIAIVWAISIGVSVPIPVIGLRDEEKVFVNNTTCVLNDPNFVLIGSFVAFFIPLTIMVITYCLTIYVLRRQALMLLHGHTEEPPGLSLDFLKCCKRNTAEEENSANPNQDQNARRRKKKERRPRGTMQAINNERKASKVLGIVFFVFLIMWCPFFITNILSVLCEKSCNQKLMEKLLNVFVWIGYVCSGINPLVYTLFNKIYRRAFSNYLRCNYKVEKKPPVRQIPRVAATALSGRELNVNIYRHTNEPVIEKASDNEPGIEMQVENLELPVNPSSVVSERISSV

Sequence of human serotonin 5-HT6 receptor (P50406 whole entry): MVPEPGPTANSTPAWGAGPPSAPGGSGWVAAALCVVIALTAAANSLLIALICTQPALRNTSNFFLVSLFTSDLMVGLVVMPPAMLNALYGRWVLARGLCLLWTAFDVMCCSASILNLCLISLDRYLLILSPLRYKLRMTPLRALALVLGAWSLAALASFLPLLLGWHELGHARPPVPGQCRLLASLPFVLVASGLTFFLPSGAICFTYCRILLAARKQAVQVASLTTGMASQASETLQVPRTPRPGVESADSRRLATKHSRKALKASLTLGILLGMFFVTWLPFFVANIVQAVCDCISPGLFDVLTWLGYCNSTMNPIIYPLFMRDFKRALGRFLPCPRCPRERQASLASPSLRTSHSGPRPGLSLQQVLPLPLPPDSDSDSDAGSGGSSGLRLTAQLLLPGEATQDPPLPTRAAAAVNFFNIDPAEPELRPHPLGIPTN

SMILES	IC50 [1] [µM]	IC50 [2] [µM]	IC50 (D3 (hD3 receptor)) [µM]	IC50 (D2 (hD2L receptor)) [µM]	IC50 [3] [µM]	IC50 (D4 (hD4.2 receptor)) [µM]	melting point [°C]	IC50 [4] [µM]	IC50 [5] [µM]
CCCn1c(=O)c2c(N3CCN(C)CC3)cc(Cl)cc2n(Cc2ccccc2)c1=O [Example 3, 1-benzyl-7-chloro-5-(4-methyl-piperazin-1-yl)-3-propyl-1H-quinazoline-2,4-dione]	0.002	> 10	2.11	> 10	0.718	> 10	120 to 121	> 10	3.76
CCCCCCCCn1c(=O)c2c(N3CCN(C)CC3)cc(Cl)cc2n(Cc2ccccc2)c1=O [Example 7, 1-benzyl-7-chloro-5-(4-methyl-piperazin-1-yl)-3-octyl-1H-quinazoline-2,4-dione]	0.0015	2.56	0.606	2.76	1.14	> 10	78 to 80	2.16	1.71
CN1CCN(c2cc(Cl)cc3c2c(=O)n(Cc2ccccc2F)c(=O)n3Cc2ccccc2)CC1 [Example 11, 1-benzyl-7-chloro-3-(2-fluoro-benzyl)-5-(4-methyl-piperazin-1-yl)-1H-quinazoline-2,4-dione]	0.0012	4.84	2.66	> 10	0.463	> 10	147 to 149	1.51	0.176
CN1CCN(c2cc(Cl)cc3c2c(=O)n(Cc2cccc(F)c2)c(=O)n3Cc2ccccc2)CC1 [Example 12, 1-benzyl-7-chloro-3-(3-fluoro-benzyl)-5-(4-methyl-piperazin-1-yl)-1H-quinazoline-2,4-dione]	0.0019	1.67	0.49	> 10	0.622	> 10	148 to 150	0.718	1.06
CN1CCN(c2cc(Cl)cc3c2c(=O)n(Cc2ccccc2Br)c(=O)n3Cc2ccccc2)CC1 [Example 14, 1-benzyl-3-(2-bromo-benzyl)-7-chloro-5-(4-methyl-piperazin-1-yl)-1H-quinazoline-2,4-dione]	0.0009	5.94	0.48	3.32	0.394	> 10	91 to 93	1.08	0.728
CN1CCN(c2cc(Cl)cc3c2c(=O)n(Cc2ccccc2Cl)c(=O)n3Cc2ccccc2)CC1 [Example 17, 1-benzyl-7-chloro-3-(2-chloro-benzyl)-5-(4-methyl-piperazin-1-yl)-1H-quinazoline-2,4-dione]	0.0005	2.18	0.138	> 10	0.169	> 10	87 to 92	3.28	0.512
CN1CCN(c2cc(Cl)cc3c2c(=O)n(Cc2cccc(Cl)c2)c(=O)n3Cc2ccccc2)CC1 [Example 18, 1-benzyl-7-chloro-3-(3-chloro-benzyl)-5-(4-methyl-piperazin-1-yl)-1H-quinazoline-2,4-dione]	0.0021	1.88	0.339	7.32	1.38	> 10	165 to 169	1.78	0.748
CN1CCN(c2cc(Cl)cc3c2c(=O)n(Cc2ccc(Cl)cc2)c(=O)n3Cc2ccccc2)CC1 [Example 19, 1-benzyl-7-chloro-3-(4-chloro-benzyl)-5-(4-methyl-piperazin-1-yl)-1H-quinazoline-2,4-dione]	0.0031	2.21	1.01	7.74	1.1	> 10	92 to 97	3.06	0.321
CN1CCN(c2cc(Cl)cc3c2c(=O)n(Cc2cccc(I)c2)c(=O)n3Cc2ccccc2)CC1 [Example 20, 1-benzyl-7-chloro-3-(3-iodo-benzyl)-5-(4-methyl-piperazin-1-yl)-1H-quinazoline-2,4-dione]	0.0016	1.92	0.615	> 10	0.912	> 10	182 to 184	3.53	1.05
Cc1ccccc1Cn1c(=O)c2c(N3CCN(C)CC3)cc(Cl)cc2n(Cc2ccccc2)c1=O [Example 22, 1-benzyl-7-chloro-3-(2-methyl-benzyl)-5-(4-methyl-piperazin-1-yl)-1H-quinazoline-2,4-dione]	0.0021	3.97	1.54	> 10	0.663	> 10	92 to 95	5.78	0.216
Cc1ccc(Cn2c(=O)c3c(N4CCN(C)CC4)cc(Cl)cc3n(Cc3ccccc3)c2=O)cc1 [Example 24, 1-benzyl-7-chloro-3-(4-methyl-benzyl)-5-(4-methyl-piperazin-1-yl)-1H-quinazoline-2,4-dione]	0.002	> 10	0.435	> 10	0.733	> 10	92 to 97	3.21	0.599
COc1ccccc1Cn1c(=O)c2c(N3CCN(C)CC3)cc(Cl)cc2n(Cc2ccccc2)c1=O [Example 25, 1-benzyl-7-chloro-3-(2-methoxy-benzyl)-5-(4-methyl-piperazin-1-yl)-1H-quinazoline-2,4-dione]	0.0019	> 10	1.33	> 10	0.916	> 10	91 to 96	7.08	0.925
O=c1c2c(N3CCNCC3)cc(Cl)cc2n(Cc2ccccc2)c(=O)n1Cc1ccccc1O [Example 65, 1-benzyl-7-chloro-3-(2-hydroxy-benzyl)-5-piperazin-1-yl-1H-quinazoline-2,4-dione]	0.0059	–	–	–	–	–	113 to 130	–	–
O=c1c2c(N3CCNCC3)cc(Cl)cc2n(Cc2ccccc2)c(=O)n1Cc1ccccc1[N+](=O)[O-] [Example 66, 1-benzyl-7-chloro-3-(2-nitro-benzyl)-5-piperazin-1-yl-1H-quinazoline-2,4-dione]	0.0057	–	–	–	–	–	129 to 134	–	–
